Assay results from ChEMBL document CHEMBL1143819, “In vitro activities of miltefosine and two novel antifungal biscationic salts against a panel of 77 dermatophytes” (2007).
Converted amounts (≈) assume the structure as drawn.

Legend:
Assay type in all cases: functional
Conditions in all cases: 168 h
Trichophyton rubrum = assay: Antifungal activity against Trichophyton rubrum after 7 days by broth microdilution test
[1] = tested on: Trichophyton mentagrophytes; assay: Antifungal activity against Trichophyton mentagrophytes after 7 days by broth microdilution test
Trichophyton tonsurans = assay: Antifungal activity against Trichophyton tonsurans after 7 days by broth microdilution test
Trichophyton soudanense = assay: Antifungal activity against Trichophyton soudanense after 7 days by broth microdilution test
Trichophyton violaceum = assay: Antifungal activity against Trichophyton violaceum after 7 days by broth microdilution test
Trichophyton = assay: Antifungal activity against Trichophyton sp. after 7 days by broth microdilution test
Epidermophyton floccosum = assay: Antifungal activity against Epidermophyton floccosum after 7 days by broth microdilution test
Microsporum canis = assay: Antifungal activity against Microsporum canis after 7 days by broth microdilution test
Nannizzia gypsea = assay: Antifungal activity against Microsporum gypseum after 7 days by broth microdilution test
Paraphyton cookei = assay: Antifungal activity against Microsporum cookei after 7 days by broth microdilution test
Microsporum = assay: Antifungal activity against Microsporum sp. after 7 days by broth microdilution test
Candida = assay: Antifungal activity against Candida after 7 days by broth microdilution test
[2] = Antifungal activity against Cryptococcus after 7 days by broth microdilution test

Structure (SMILES) | MIC (Trichophyton rubrum) [µg/mL] | MIC50 (Trichophyton rubrum) [µg/mL] | MIC90 (Trichophyton rubrum) [µg/mL] | MIC [1] [µg/mL] | MIC50 [1] [µg/mL] | MIC90 [1] [µg/mL] | MIC (Trichophyton tonsurans) [µg/mL] | MIC50 (Trichophyton tonsurans) [µg/mL] | MIC (Trichophyton soudanense) [µg/mL] | MIC (Trichophyton violaceum) [µg/mL] | MIC (Trichophyton) [µg/mL] | MIC50 (Trichophyton) [µg/mL] | MIC90 (Trichophyton) [µg/mL] | MIC (Epidermophyton floccosum) [µg/mL] | MIC (Microsporum canis) [µg/mL] | MIC (Nannizzia gypsea) [µg/mL] | MIC (Paraphyton cookei) [µg/mL] | MIC (Microsporum) [µg/mL] | MIC50 (Microsporum) [µg/mL] | MIC90 (Microsporum) [µg/mL] | also measured
CCCCCc1cc[n+](CCCCCCCCCCCC[n+]2ccc(CCCCC)cc2)cc1.[Cl-].[Cl-] | 10.4 | 8 | 16 | 9.01 | 8 | 16 | 2.8 | 2 | 14.5 | 8.96 | 6.98 | 8 | 16 | 7.63 | 2.95 | 2.41 | 1.06 | 2.24 | 2 | 4 | MIC90 (Trichophyton tonsurans): 8 µg/mL; MIC (Candida): 0.6 µg/mL; MIC [2]: 0.6 µg/mL
CCCCCCCCCCCCCCCCOP(=O)([O-])OCC[N+](C)(C)C [MILTEFOSINE] | 0.547 (≈ 1.34 µM) | 0.5 (≈ 1.23 µM) | 1 (≈ 2.45 µM) | 1.13 (≈ 2.78 µM) | 1 (≈ 2.45 µM) | 2 (≈ 4.91 µM) | 0.398 (≈ 0.977 µM) | 0.25 (≈ 0.613 µM) | 0.52 (≈ 1.28 µM) | 0.328 (≈ 0.805 µM) | 0.652 (≈ 1.6 µM) | 0.5 (≈ 1.23 µM) | 1 (≈ 2.45 µM) | 0.548 (≈ 1.34 µM) | 0.555 (≈ 1.36 µM) | 0.842 (≈ 2.07 µM) | 0.866 (≈ 2.12 µM) | 0.75 (≈ 1.84 µM) | 1 (≈ 2.45 µM) | 1 (≈ 2.45 µM) | MIC90 (Trichophyton tonsurans): 1 µg/mL (≈ 2.45 µM)
CN(C/C=C/C#CC(C)(C)C)Cc1cccc2ccccc12 [TERBINAFINE] | 0.035 (≈ 0.12 µM) | 0.031 (≈ 0.106 µM) | 0.063 (≈ 0.216 µM) | 0.03 (≈ 0.103 µM) | 0.031 (≈ 0.106 µM) | 0.063 (≈ 0.216 µM) | 0.03 (≈ 0.103 µM) |  | 0.039 (≈ 0.134 µM) | 0.063 (≈ 0.216 µM) | 0.044 (≈ 0.151 µM) | 0.031 (≈ 0.106 µM) | 0.063 (≈ 0.216 µM) | 0.059 (≈ 0.202 µM) | 0.083 (≈ 0.285 µM) | 0.065 (≈ 0.223 µM) | 0.077 (≈ 0.264 µM) | 0.075 (≈ 0.257 µM) | 0.063 (≈ 0.216 µM) | 0.125 (≈ 0.429 µM) | 

The remaining molecules from weak to strong by MIC (Trichophyton rubrum), led by results:

MIC (Trichophyton rubrum) [µg/mL] | MIC50 (Trichophyton rubrum) [µg/mL] | MIC90 (Trichophyton rubrum) [µg/mL] | MIC [1] [µg/mL] | MIC50 [1] [µg/mL] | MIC90 [1] [µg/mL] | MIC (Trichophyton tonsurans) [µg/mL] | MIC50 (Trichophyton tonsurans) [µg/mL] | MIC (Trichophyton soudanense) [µg/mL] | MIC (Trichophyton violaceum) [µg/mL] | MIC (Trichophyton) [µg/mL] | MIC50 (Trichophyton) [µg/mL] | MIC90 (Trichophyton) [µg/mL] | MIC (Epidermophyton floccosum) [µg/mL] | MIC (Microsporum canis) [µg/mL] | MIC (Nannizzia gypsea) [µg/mL] | MIC (Paraphyton cookei) [µg/mL] | MIC (Microsporum) [µg/mL] | MIC50 (Microsporum) [µg/mL] | MIC90 (Microsporum) [µg/mL] | Structure (SMILES) | also measured
1.96 (≈ 2.77 µM) | 2 (≈ 2.83 µM) | 4 (≈ 5.67 µM) | 1.68 (≈ 2.38 µM) | 2 (≈ 2.83 µM) | 4 (≈ 5.67 µM) | 1.65 (≈ 2.33 µM) | 2 (≈ 2.83 µM) | 3.42 (≈ 4.85 µM) | 3.3 (≈ 4.68 µM) | 1.99 (≈ 2.82 µM) | 2 (≈ 2.83 µM) | 4 (≈ 5.67 µM) | 0.226 (≈ 0.32 µM) | 1.23 (≈ 1.74 µM) | 3.68 (≈ 5.22 µM) | 6 (≈ 8.5 µM) | 2.63 (≈ 3.73 µM) | 4 (≈ 5.67 µM) | 8 (≈ 11.3 µM) | CCC(C)n1ncn(-c2ccc(N3CCN(c4ccc(OCC5COC(Cn6cncn6)(c6ccc(Cl)cc6Cl)O5)cc4)CC3)cc2)c1=O (stereo not given) [ITRACONAZOLE] | MIC90 (Trichophyton tonsurans): 4 µg/mL (≈ 5.67 µM)
0.05 (≈ 0.157 µM) | 0.063 (≈ 0.198 µM) | 0.125 (≈ 0.394 µM) | 0.063 (≈ 0.198 µM) | 0.063 (≈ 0.198 µM) | 0.125 (≈ 0.394 µM) | 0.04 (≈ 0.126 µM) | 0.031 (≈ 0.0976 µM) | 0.059 (≈ 0.186 µM) | 0.063 (≈ 0.198 µM) | 0.074 (≈ 0.233 µM) | 0.063 (≈ 0.198 µM) | 0.125 (≈ 0.394 µM) | 0.081 (≈ 0.255 µM) | 0.101 (≈ 0.318 µM) | 0.084 (≈ 0.265 µM) | 0.153 (≈ 0.482 µM) | 0.106 (≈ 0.334 µM) | 0.125 (≈ 0.394 µM) | 0.125 (≈ 0.394 µM) | CN(Cc1ccc(C(C)(C)C)cc1)Cc1cccc2ccccc12 [BUTENAFINE] | MIC90 (Trichophyton tonsurans): 0.063 µg/mL (≈ 0.198 µM)
